These results are taken from patent publication US20130001162A1, “Apparatus, System, and Method for Forward Osmosis in Water Reuse” (priority 2011, published 2013).

Assay in the first series: not given
The settings on record: stated with the literature report; cited from earlier work.
For orientation: log D means the decadic logarithm of the distribution of all forms, ionised or not, between an organic phase and buffer at a given pH. With `C[C@]12CC[C@@H]3c4ccc(O)cc4CC[C@H]3[C@@H]1CC[C@@H]2O` [estradiol], the “log D” value is 3.94. In the case of `C[C@]12CC[C@@H]3c4ccc(O)cc4CC[C@H]3[C@@H]1CCC2=O` [estrone], the “log D” value is listed as 3.46.

A further series can be described thus: Rejection of micropollutants by low pressure reverse osmosis (LPRO), diluted DS as feed. The settings on record: permeate of LPRO at 15 bar.
Regarding `Cn1c(=O)c2c(ncn2C)n(C)c1=O` [Caffeine], the “concentration, Permeate LPRO” value was 0.03 ng/mL. Still for that read-out and setting: for `C1COCCO1` [1,4-dioxane] the value was under 0.5 ng/mL; for `CC(C(=O)O)c1cccc(C(=O)c2ccccc2)c1` (stereo not drawn) [Ketoprofen], under 0.01 ng/mL; for `C#C[C@]1(O)CC[C@H]2[C@@H]3CCc4cc(O)ccc4[C@H]3CC[C@@]21C` [17α-ethynilestradiol], under 0.001 ng/mL. Same read-out and setting: for `CC(C(=O)O)c1cccc(Oc2ccccc2)c1` (stereo not drawn) [Fenoprofen] the value was under 0.01 ng/mL. The same measure, in the same setting: for `Cc1ncc([N+](=O)[O-])n1CCO` [Metronidazole] the value was 0.08 ng/mL; for `Cc1ccc(C)c(OCCCC(C)(C)C(=O)O)c1` [Gemfibrozil], under 0.01 ng/mL; for `CC(=O)Nc1ccc(O)cc1` [Acetaminophen], 0.31 ng/mL. As for `NC(=O)N1c2ccccc2C=Cc2ccccc21` [Carbamazepine], the “concentration, Permeate LPRO” value was found to be 0.02 ng/mL. `CC(C)(c1ccc(O)cc1)c1ccc(O)cc1` [Bisphenol A]: the “concentration, Permeate LPRO” value turned out to be 0.058 ng/mL.
